According to a melting point compilation (Tetko et al.; mined from patent text by program, amines drawn as free bases though some values may be those of a salt):

Row | SMILES | melting point [°C]
1 | CC(C)[Si]1(C(C)C)C([Si](C)(C)C)=C(c2ccccc2)C(c2ccccc2)=C1[Si](C)(C)C | 107
2 | COC(=O)ONC(=N)Nc1ccc(C(=O)O)cc1 | 174 to 175
3 | CCOC(C)=NS(=O)(=O)c1nc(-c2ccccc2)ns1 | 120 to 122
4 | CCNC(=C[N+](=O)[O-])NCCSCc1csc(CN(C)C)n1 | 89 to 90
5 | C=CS(=O)(=O)c1cc2c(Nc3cccc(Br)c3)ncnc2cn1 | 214 to 217
6 | CC1=NN(c2ccc(CO)cc2)C(=O)C1 | 139 to 140
7 | COc1ccc(C2=NN(C3CCN(C(=O)CCSCCN)CC3)C(=O)[C@@H]3CC=CC[C@H]23)cc1OC | 137 to 139
8 | CCOC(OCC)c1nc(-c2ccc(Cl)cc2)c(F)c(N=C2C=CC(=O)C=C2)c1Cl | 134 to 136
9 | CN(C)CSc1ccc(-n2cnnn2)cc1 | 56 to 57.5
10 | COc1ccc(C2(C#Cc3cc(N4CN=C(C)O4)cs3)CCC(=O)CC2)cc1OC1CCCC1 | 90 to 91
11 | Brc1cc(-c2c3ccccc3c(Br)c3sc4ccccc4c23)cc(Br)c1OCc1nnn[nH]1 | 243 to 245
12 | OC(CNCCC1c2ccccc2COc2ccccc21)COc1ccccc1 (stereo not drawn) | 136 to 138
13 | COc1cc2c(cc1OC)NC(=O)N(CCCN(C)CCCS(=O)(=O)c1ccccc1)CC2 | 118 to 121
14 | C[Si](C)(C)c1cccs1 | 61 to 62
15 | CCOC(=O)c1c(C)nc(S)c(N)c1NCCCN(C)C | 110 to 112
16 | Cc1ccccc1-c1cc(F)cc2c1NC(CN)CO2 (stereo not drawn) | 78
17 | CNc1ccccc1CS(=O)c1nc2ncccc2[nH]1 (stereo not drawn) | 120
18 | NC(=O)CNC(=O)c1cccc(-c2ccc(Cl)c3cc(Cc4ccc(F)c(F)c4)sc23)c1 | 188 to 189
19 | CCc1nc2c(cnn2CC)c(NC2CCOCC2)c1CNC(=O)c1cccc(C(=O)NCc2ccc(F)c(-c3cccc(CN(C)CCN(C)C)c3)c2)c1 | 126 to 129
20 | Cc1ccc2c(c1)[C@@]1(C)Cc3ccccc3[C@@]1(C)N2 (relative stereo) | 208 to 212
21 | Cc1cc(-c2n[nH]c(Cc3ccccc3)n2)sc1C(=O)NCc1ccccc1 | 168 to 171
22 | COc1cc(-c2ccc([N+](=O)[O-])cn2)cc(OC)c1OC | 134 to 136
23 | Cn1ccc(-c2[nH]nc3c2C(=O)c2c(NC(N)=O)cccc2-3)c1 | > 300
24 | CC(C)(C)Cn1c(=O)c(C#N)c(N2CCN(C(=O)c3cccs3)CC2)c2cccnc21 | 232
25 | Cc1c(N2C(=O)[C@H]3[C@@H](O)CCN3C2=O)ccc(C#N)c1Cl | 237 to 238

Row | SMILES | melting point [°C]
26 | O=C(C(=C1SCS1)c1ccncc1)c1ccc(Cl)cc1 | 149 to 151
27 | CSC(=NC(=O)c1ccccc1)Nc1ccccc1 | 78 to 94
28 | C=CCN1CCC(Nc2nc3cncnc3n2Cc2ccc(F)cc2)CC1 | 145
29 | COC(=O)CCCCCCNC(=O)C(COS(C)(=O)=O)NS(=O)(=O)c1ccc(Cl)cc1 (racemic) | 77 to 82
30 | COC(=O)c1cc(=O)c2oc3ccccc3c(=O)c2[nH]1 | 244 to 245
31 | O=C(Nc1ccccc1)O[C@@H]1CN=C(c2ccccc2)O[C@H]1c1ccccc1 (racemic) | 111
32 | O=c1cc(-c2ccccc2)sc(N2CCOCC2)c1 | 160 to 161
33 | OC1C(COC2CC2)OC(n2cnc3c(NCc4cccc(I)c4)ncnc32)C1O (stereo not drawn) | 110 to 112
34 | N=C(Nc1ccc(C(F)(F)F)cc1)Nc1ncccc1OCc1ccccc1 | 154 to 155
35 | C1=C(c2c[nH]c3ccccc23)CCN(CC2COc3ccc4ncncc4c3O2)C1 (stereo not drawn) | 204 to 207
36 | O=C1c2ccccc2S(=O)(=O)N1COc1ccc([N+](=O)[O-])cc1 | 162 to 164
37 | COC1(c2cccc(Sc3ccc(C(C)=NO)cc3)c2)CCN(CC(F)(F)F)C1 (stereo not drawn) | 86 to 88
38 | CSCC[C@H](NC(=O)c1ccc(/C=C(/Cn2ccnc2)c2ccc(F)cc2)cc1)C(=O)O | 106
39 | CCOC(=O)[C@@H]1OC(c2ccc(O)c(OCC)c2)O[C@H]1C(=O)OCC | 78 to 80
40 | CC(C)N(CCC(CCN(C)C)(C(N)=O)c1ccccc1)C(C)C (stereo not drawn) | 75 to 78
41 | Cn1c2c(c3ccc(-n4ccc(OCc5ccccc5)cc4=O)cc31)CNCCC2 | 178 to 181
42 | NS(=O)(=O)c1ccc(-c2cnn(Cc3ccc(F)cc3F)c(=O)c2-c2ccc(F)cc2)cc1 | 236 to 238
43 | COC(=O)C(=CNc1ccc(F)cc1)C(=O)C=Cc1ccc(Cl)cc1 | 166 to 168
44 | COc1ccc2cc([C@H](C)C(=O)NN)ccc2c1 | 106 to 108
45 | NC(=O)CC(=O)NCCCOc1cccc(CN2CCCCC2)c1 | 85.3 to 88.3
46 | NS(=O)(=O)c1ccc(-n2nc(C(F)(F)F)cc2-c2ccc(-c3ccco3)cc2)cc1F | 151
47 | CCc1cc(-c2ccc(-c3ccn(CC(=O)OC)n3)cc2)ccc1OC | 116 to 120
48 | Cc1ccc(S)c(C(=O)O)c1 | 56 to 58
49 | CN(C)C(=NC1CCCCC1)C(N)=S | 116 to 120
50 | CCOC(=O)c1ccccc1-n1c(=O)c2ccccc2n(CCCCBr)c1=O | 101 to 102

Row | SMILES | melting point [°C]
51 | NS(=O)(=O)c1cc2c(s1)SCCCC2=O | 185 to 186
52 | Cc1cc(Cc2cnc(NCCSCc3ncccc3Br)[nH]c2=O)cnc1C | 105 to 107
53 | CN1CC(CO)C2c3cccc4c3c(cn4S(=O)(=O)c3ccccc3)CC21 (stereo not drawn) | 124 to 127
54 | COc1cc2c(c3c1OC(C)(C)C3)C(c1cccc(C#N)c1)=NCC2(C)C | 178 to 180
55 | O=C1CC(c2ccccc2)CC(=O)O1 | 102 to 103
56 | CCOC(=O)CCSc1nnsc1-c1ccccc1 | 57.5 to 58.5
57 | Cn1c(C(F)(F)F)cc(=O)n(-c2cc(OCc3ccccc3F)c(Cl)cc2F)c1=O | 126 to 128
58 | O=C(O)CCCc1cc2nc(Cl)ccc2n1S(=O)(=O)c1ccccc1OC(F)(F)F | 138
59 | CC(C)(C)OC(=O)Nc1ccc(C#Cc2ccc(OC(F)(F)F)cc2)cc1NC(=O)CC(=O)c1cccc(C#N)c1 | 152 to 154
60 | COC(=O)C[C@@H](CC(=O)C=Cc1c(-c2ccc(F)cc2)c(-c2ccccc2)c(C(=O)Nc2cccc(S(N)(=O)=O)c2)n1C(C)C)O[Si](C)(C)C(C)(C)C | 90 to 91
61 | Cc1cc(-c2cc3cc(OCCNC[C@H](O)c4cccc(Cl)c4)ccc3o2)no1 | 108 to 110
62 | Nc1nc(-n2cc(C(=O)O)c(=O)c3cc(F)c(NCC(O)CO)c(Cl)c32)c(F)cc1F (stereo not drawn) | 166 to 169
63 | C=CCOC(=O)CC[C@H](NC(=O)Nc1ccc(COC(=O)Oc2ccc([N+](=O)[O-])cc2)cc1)C(=O)OCC=C | 106 to 107
64 | CN(C)C(=S)SC(C[N+](=O)[O-])c1ccc(Br)cc1 (stereo not drawn) | 79 to 81
65 | COc1cc(C=CC(=O)c2ccccc2)ccc1O | 87 to 88
66 | c1csc(-c2ncc(COc3ccc(CCCCn4ccnc4)cc3)s2)c1 | 128 to 129
67 | Nc1ncccc1Sc1ccccc1 | 108 to 109
68 | COC(=O)CC(NC(=O)C1CC=CCC1)C(C)=O (stereo not drawn) | 69 to 70
69 | Nc1cc(F)c(F)cc1C(=O)NOCc1ccccc1 | 125 to 126
70 | COc1cc(C[C@@H](NC(C)=O)C(=O)O)ccc1OC(C)=O | 174 to 175
71 | Cn1ccc(S(=O)(=O)NC(C)(C)C)c1C=O | 102 to 103
72 | CCOC(=O)/C=C/c1cnc(-c2ccc(OCc3ccccc3)c(C34CC5CC(CC(C5)C3)C4)c2)cn1 | 145 to 148
73 | CCCc1ccc2oc(CCc3ccc(OC)cc3)c(C)c2c1O | 77 to 79
74 | CCCCCCCCCCC(=O)Nc1ccn(C2OC(CO)C(O)C2O)c(=O)n1 (stereo not drawn) | 146 to 150
75 | C=CC[C@H]1CC(C(=O)OCC[Si](C)(C)C)=C[C@@H](OC(C)C)[C@@H]1NC(C)=O | 64 to 65

Row | SMILES | melting point [°C]
76 | Cn1cc(-c2ccccc2)c(=O)c(-c2cccc(CC3CCCCC3)c2)c1 | 147 to 148
77 | O=c1ccc2cc(I)ccc2[nH]1 | 261
78 | COC(=O)C=Cc1ccc(OCC2CN(c3ccccc3)C(=O)O2)cc1 (stereo not drawn) | 179 to 181
79 | CCn1c(=O)c(C(N)=O)c(N)c2ccc(C)nc21 | 263 to 266
80 | Cc1ncc2c(c1OCC(=O)O)COC2c1ccccc1 (stereo not drawn) | 220
81 | CC(C)(CCc1ccccc1)NCC(O)CO (stereo not drawn) | 74 to 77
82 | CC12CC(N3CCC4(CC3)OCCO4)C(O)CC1CCC1C2CCC2(C)C(O)C(N3CCCCC3)CC12 (stereo not drawn) | 216 to 218
83 | CNC1Oc2cc(Cl)cc(-c3ccc(Cl)cc3Cl)c2O1 (stereo not drawn) | > 250
84 | CC(=O)SCC1CCCCCCCSC[C@@H](C(=O)OCc2ccccc2)NC1=O (stereo partly drawn) | 192 to 193
85 | COC(=O)c1cccc(C)c1S(=O)(=O)Cl | 114 to 116
86 | N#Cc1c(-c2ccc(Cl)c(Cl)c2)cc(C2CC2)nc1Cl | 158 to 160
87 | O=C(CCc1ccncc1)c1c(O)c2cccnc2n(-c2cccc([N+](=O)[O-])c2)c1=O | 174 to 177
88 | Cc1c(F)cc(C(=O)NC(C)C(C)C)cc1-c1ccc(C(=O)NCC(C)(C)C)cc1C(=O)Nc1nccs1 (stereo not drawn) | 234 to 239
89 | O=C1c2ccc([N+](=O)[O-])cc2COc2cc(Nc3ccc(F)cc3[N+](=O)[O-])ccc21 | 211
90 | O=S1(=O)N=CN(CCF)c2ccc(Cl)cc21 | 211 to 218
91 | O=C(NCCO)c1cccc(-c2cccc3nn(Cc4ccc(F)c(Cl)c4)cc23)c1 | 177 to 178
92 | CCc1nc2c(N)nc3ccccc3c2n1CCOCCN | 144 to 146
93 | CCOC(=O)c1cc(NCc2ccccc2)c(Oc2ccc(OC)cc2)c(S(N)(=O)=O)c1 | 189 to 190
94 | COCCc1nc2c(N)nc3ccccc3c2n1CCOCCNC(=O)N1CCOCC1 | 164 to 166
95 | CN1CCC(OC(=O)N2c3ccccc3NC(=O)c3ccccc32)CC1 | 203 to 204
96 | CN1Cc2c(-c3noc(CN4CCCCC4)n3)ncn2-c2ccccc2C1=O | 167 to 168
97 | COCCC1(C(=O)N[C@@H](Cc2ccc(NC(=O)c3cc(C#N)ccc3Cl)cc2)C(=O)O)CCCC1 | 169 to 172
98 | O=C1CCC(CCN2CC(N3CCOCC3)C2)(c2ccc(Cl)c(Cl)c2)CN1Cc1ccc(-c2ccccc2)cc1 (stereo not drawn) | 72 to 82
